Experimental data taken from ChEMBL document CHEMBL3301361, “Experimental in vitro DMPK and physicochemical data on a set of publicly disclosed compounds”.

What was measured:
in vitro [1] = conditions: human
in vitro [2] = conditions: SD, HW or BN, rat, plasma
in vitro [3] = conditions: mouse, plasma
in vitro [4] = conditions: human, plasma
physchem [5] = conditions: octan-1-ol/water
in vitro [6] = conditions: Beagle, dog, plasma
in vitro [7] = conditions: human, hepatocytes
in vitro [8] = conditions: hepatocytes
physchem [9] = experiment: physchem

SMILES	fraction unbound at 5 h (in vitro [2])	fraction unbound at 5 h (in vitro [3])	fraction unbound at 5 h (in vitro [4]; PPB)	logD (physchem [5]; pH 7.4, LogD7.4)	also measured
Cc1cc(N2CCC[C@@H]2C(=O)NCCc2ccc3c(c2)OCO3)nc(-n2ccnc2)n1	0.22	0.154	0.19	2.5	microsomal CLint (in vitro [1]; liver microsomes): > 150 µL/min/mg
CCc1c(C(=O)C(N)=O)c2c(OCC(=O)O)cccc2n1Cc1ccccc1 [VARESPLADIB]	0.0768	0.22			fraction unbound at 5 h (in vitro [6]): 0.129; fraction unbound at 5 h (in vitro [4]): 0.124
CC1(CCCc2cc(=O)oc3[nH]c(=O)[nH]c(=O)c23)CC1 [SCH-900271]	0.0149	0.0268	0.0149		microsomal CLint (in vitro [1]; liver microsomes): < 3 µL/min/mg; hepatocyte CLint (in vitro [7]): < 3 µL/min/1e6 cells; hepatocyte CLint (in vitro [8]): 42.7 µL/min/1e6 cells
N#Cc1c(O)c2c(-c3ccc(-c4ccccc4O)cc3)csc2[nH]c1=O		0.0063			microsomal CLint (in vitro [1]; liver microsomes): < 3 µL/min/mg; hepatocyte CLint (in vitro [8]): 52.5 µL/min/1e6 cells
FC(F)(F)Oc1ccc(-c2nnc(CCCCc3ccc4cccnc4n3)o2)cc1Cl		0.0043	0.0008		hepatocyte CLint (in vitro [7]): 24.6 µL/min/1e6 cells
CC(C)C[C@H](CO)Nc1nc(S[C@@H](C)c2ccccc2)nc2[nH]c(=O)sc12		0.0009	0.001	4.3	fraction unbound at 5 h (in vitro [6]): 0.0019
CO[C@H]1CC[C@]2(CC1)Cc1ccc(-c3cncc(Br)c3)cc1C21N=C(C)C(N)=N1 (some centres undefined)	0.0661	0.0209	0.139	3.4	
CC(C)Oc1cc(Nc2nc(N[C@@H](C)c3ncc(F)cn3)ncc2Cl)n[nH]1		0.0736	0.112		fraction unbound at 5 h (in vitro [6]): 0.204
CC(C)[C@H](C(=O)Nc1nccs1)c1ccc(Cl)cc1	0.0106	0.0111	0.0074		hepatocyte CLint (in vitro [7]): 12 µL/min/1e6 cells
CC(C)(F)C[C@H](N[C@@H](c1ccc(-c2ccc(S(C)(=O)=O)cc2)cc1)C(F)(F)F)C(=O)NC1(C#N)CC1 [ODANACATIB]	0.0366	0.016	0.0606	2.9	
c1ccc2[nH]c(CCc3nc4ccccc4[nH]3)nc2c1	0.201	0.19	0.16	3.3	
CO[C@H]1CC[C@]2(CC1)Cc1ccc(OCC(C)C)cc1C21N=C(C)C(N)=N1 (some centres undefined)		0.349	0.201	3.4	hepatocyte CLint (in vitro [7]): 7.24 µL/min/1e6 cells
N[C@@H](CC(=O)N1CCn2c(nnc2C(F)(F)F)C1)Cc1cc(F)c(F)cc1F [SITAGLIPTIN]	0.78	0.711	0.768	0.31	
CC1=C(C(=O)OCc2ccccc2)C(c2cccs2)NC(=O)N1 (centres undefined)	0.0171	0.03	0.0268		
CCOc1ncc(C)c2c1[C@H](c1ccc(C#N)cc1OC)C(C(N)=O)=C(C)N2 [FINERENONE]	0.0007	0.0007	0.0752	2.51	microsomal CLint (in vitro [1]; microsomes): 97.7 µL/min/mg; hepatocyte CLint (in vitro [8]): 26.9 µL/min/1e6 cells
CCc1c(C(=O)C(N)=O)c2c(OCC(=O)OC)cccc2n1Cc1ccccc1 [VARESPLADIB METHYL]		0.232			hepatocyte CLint (in vitro [7]): 50.1 µL/min/1e6 cells
C[C@@H]1CN(C(=O)[C@@H]2CN(C(C)(C)C)C[C@H]2c2ccc(F)cc2F)C[C@H](C)[C@@]1(O)c1ccccc1 [PF-00446687]	0.19	0.262	0.232		hepatocyte CLint (in vitro [7]): 25.1 µL/min/1e6 cells
CN(C)CCC1CCN(c2cc(C(=O)NC[C@H]3CC[C@H](CNC(=O)OCC(C)(C)C)CC3)c3ccccc3n2)CC1	0.0133	0.0039	0.0139		
CN(C)C(=O)C(CCN1CCC(O)(c2ccc(Cl)cc2)CC1)(c1ccccc1)c1ccccc1 [LOPERAMIDE]	0.0544	0.0358			pKa (physchem [9]): 9.14; fraction unbound at 5 h (in vitro [4]): 0.0736; logD (physchem [5]; pH 7.4): 3.47

SMILES	fraction unbound at 5 h (in vitro [2])	fraction unbound at 5 h (in vitro [3])	fraction unbound at 5 h (in vitro [4]; PPB)	logD (physchem [5]; pH 7.4, LogD7.4)	also measured
Cc1ccccc1-n1c(Cn2cnc3c(N)ncnc32)nc2cccc(C)c2c1=O	0.24	0.0801			fraction unbound at 5 h (in vitro [4]): 0.0136; logD (physchem [5]; pH 7.4): 2.6; hepatocyte CLint (in vitro [8]): 24 µL/min/1e6 cells
O=C(Nc1ccc(N2CCNCC2)cc1)c1ccc(-c2ccc(Cl)cc2)o1	0.0055	0.03	0.0268	2.4	hepatocyte CLint (in vitro [7]): < 3 µL/min/1e6 cells
c1ccc2c(c1)CC(N1CCN(c3cccc4c3OCCO4)CC1)C2	0.0428	0.0661	0.0262		
CS(=O)(=O)N1CCC(NC(=O)NC23CC4CC(CC(C4)C2)C3)CC1	0.262	0.17	0.289	2.7	
c1ccc([C@@H]([C@H](c2ccccc2)N2CCCCC2)N2CCCCC2)cc1	0.319	0.262	0.0988		
C[C@@]1(c2cc(-c3cncnc3)c(F)cc2F)CCSC(N)=N1 [LY-2811376]		0.671	0.46	0.8	fraction unbound at 5 h (in vitro [6]): 0.629
COc1ccc(S(=O)(=O)N2CC(C)N(S(=O)(=O)c3ccc(OC)cc3)CC2C)cc1 (centres undefined)	0.0139	0.0179			fraction unbound at 5 h (in vitro [4]): 0.0035
Cc1ncccc1Oc1ncnc(OC2CCN(C(=O)OC(C)C)CC2)c1C	0.0313	0.0149	0.0079	3.8	
CC(O)(C(=O)Nc1cccc(S(=O)(=O)c2ccccc2)c1)C(F)(F)F (centres undefined)	0.0594	0.0661	0.0909		
COc1ccc2cc(S(=O)(=O)N[C@H](CC(=O)N[C@H](Cc3ccc(CN4[C@H](C)CCC[C@@H]4C)cc3)C(=O)N(C)C(C)C)c3ccc4c(c3)OCO4)ccc2c1	0.0447	0.04	0.04		
CC(C)(C)OC(=O)NC[C@H]1CC[C@H](CNC(=O)c2cc(N3CCC(CCN4CC(O)C4)CC3)nc3ccccc23)CC1	0.0328	0.0139	0.03		
Cc1cccc(-c2ccc(CNC(=O)CCCc3ccc4cccnc4n3)cc2)c1		0.0022			hepatocyte CLint (in vitro [7]): 60.3 µL/min/1e6 cells
O=C1Nc2cc(C(F)(F)F)ccc2C1(O)c1cc(Cl)ccc1O (centres undefined)	0.0111	0.0219			fraction unbound at 5 h (in vitro [4]): 0.0149
CC(C)Cc1c(C(=O)C(N)=O)c2c(OCC(=O)O)cccc2n1Cc1ccccc1	0.0187	0.0366			fraction unbound at 5 h (in vitro [4]): 0.0313
Cc1ncsc1C(=O)N(Cc1cc(=O)[nH]c2c(F)cccc12)c1cccc(Cl)c1	0.0836	0.0736	0.0209		
COC(=O)N[C@@H](C)C#Cc1cnc(Oc2ccc(OC(C)C)cc2)s1	0.0051	0.0099	0.0034		
CC(C)[C@H](O)C(=O)N[C@@H](C)C(=O)N[C@@H]1C(=O)N(C)CCc2ccccc21	0.792	0.858	0.803		
CCOC(=O)C1=C(C)NC(C)=C(C(C)=O)[C@H]1c1cccc2c(=O)cc(C)oc12	0.0008	0.0016	0.148	2.63	pKa (physchem [9]): 2.22; microsomal CLint (in vitro [1]; liver microsomes): > 150 µL/min/mg; hepatocyte CLint (in vitro [7]): 45.7 µL/min/1e6 cells; hepatocyte CLint (in vitro [8]): 105 µL/min/1e6 cells
Cc1nccc(-c2ccc(-c3nc4ccncc4c(O)c3C#N)cc2)c1Cl	0.0014	0.0088	0.0014	2	
